Experimental findings from patent publication US8809352B2, “Sulfonamides as inhibitors of Bcl-2 family proteins for the treatments of cancer” (Novartis AG, priority 2009, dated 2014) are described below.

Sequence of BCL2 (P10415 whole entry): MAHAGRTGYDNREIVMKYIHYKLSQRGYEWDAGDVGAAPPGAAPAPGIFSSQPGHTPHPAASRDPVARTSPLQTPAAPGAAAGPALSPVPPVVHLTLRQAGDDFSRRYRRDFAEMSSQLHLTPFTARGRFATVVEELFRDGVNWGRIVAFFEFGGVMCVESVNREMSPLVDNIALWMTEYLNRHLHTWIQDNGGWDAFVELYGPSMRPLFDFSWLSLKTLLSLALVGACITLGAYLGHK

The target in the assay is BCL2 (Homo sapiens, UniProt P10415). In words: Biacore SPR solution inhibition assay of BCL-2 binding to peptide derivatized sensor surfaces. The settings on record: SPR competition; 56 nM BCL2 pre-equilibrated with compound one hour; biotinylated BAK, BAD and NOXA peptide surfaces; 25° C. The text has this:
The present method includes utility of a Surface plasmon resonance (SPR)-based biosensor (Biacore™ GE Healthcare, Uppsala, Sweden) to characterize BCL-2 inhibitors.
Biacore™ utilizes the phenomenon of surface plasmon resonance (SPR) to detect and measure binding interactions. In a typical Biacore experiment, one of the interacting molecules (ligand) is immobilized on a flexible dextran matrix while the interacting partner (analyte) is allowed to flow across that surface. A binding interaction results in an increase in mass on the sensor surface and a corresponding direct change in the refractive index of the medium in the vicinity of the sensor surface. Changes in refractive index or signal are recorded in resonance units (R.U.) Signal changes due to association and dissociation of complexes are monitored in a non-invasive manner, continuously and in real-time, the results of which are reported in the form of a sensorgram. The SPR assay is configured to examine solution inhibition of BCL-2 binding to peptide derivatized sensor surfaces to generate […] values as a measure of inhibitor potency.
Biacore™ A100 (GE Healthcare, Uppsala, Sweden) was used to conduct all experiments reported herein. Sensor surface preparation and all interaction analyses experiments were performed at 25° C. Reagents were purchased from GE Healthcare. Running buffer containing 10 mM Hepes, pH7.4, 150 mM sodium chloride, 1.25 mM Dithiothreitol, 3% Dimethyl sulfoxide and 0.05% polysorbate 20 were utilized throughout all analyses.
Biotinylated BAK, BAD and NOXA peptides were diluted to 10 nM in running buffer and captured onto a sensor surface pre-derivatized with streptavidin (sensor chip SA) to peptide surface densities in the range 50-100 R.U. Peptide captured surfaces were blocked with 500 μM PEO2-Biotin.
Interaction analyses were performed by first equilibrating each sample within a 6 point three fold compound dilution series in the range 16 μM to 0.004 nM with 56 nM BCL2 for one hour during instrument start-up procedures. Protein compound mixtures were then injected over each peptide surface in parallel for 60 seconds at a flow-rate of 30 μL/min. 56 nM BCL2 control samples were also prepared and run at regular intervals during the assay. Surface regeneration was performed at the end of each analysis cycle by two 30 second injections of 10 mM Glycine, pH 2.5, 1M Sodium Chloride, 0.05% polysorbate 20. Samples and control compound samples were run in duplicate and controls are also run at regular intervals during the assay to monitor surface and assay performance.
Data analyses are carried out using Biacore™ A100 evaluation software v1.1 to validate assay quality. Binding level report points were used relative to BCL2 control samples to calculate % inhibition values for each compound protein mixture.
(In general: Surface plasmon resonance follows binding to a sensor surface in real time, without labels.)
As usually defined, the IC50 is the concentration that inhibits the measured activity by half. On to `CN(C)CC[C@H](CSc1cccc(Cl)c1)Nc1ccc(S(=O)(=O)Nc2ncnc3c2CCN(C2CCN(Cc4ccccc4-c4ccc(F)cc4)CC2)C3)cc1S(=O)(=O)C(F)(F)F` [Example 57, N-{7-[1-(4′-Fluoro-biphenyl-2-ylmethyl)-piperidin-4-yl]-5,6,7,8-tetrahydro-pyrido[3,4-d]pyrimidin-4-yl}-4-[(R)-1-(3-chloro-phenylsulfanylmethyl)-3-dimethylamino-propylamino]-3-trifluoromethanesulfonyl-benzenesulfonamide], for which the IC50 came out at 99 nM.
Consider `[2H]C1(N2CCc3c(ncnc3NS(=O)(=O)c3ccc(N[C@H](CCN4CCOCC4)CSc4ccccc4)c(S(=O)(=O)C(F)(F)F)c3)C2)CCN(CC2=C(c3ccc(Cl)cc3)CC(C)(C)CC2)CC1` [Example 91, (R)-N-(7-(1-((2-(4-chlorophenyl)-4,4-dimethylcyclohex-1-enyl)methyl)-4-deuteropiperidin-4-yl)-5,6,7,8-tetrahydropyrido[3,4-d]pyrimidin-4-yl)-4-(4-morpholino-1-(phenylthio)butan-2-ylamino)-3-(trifluoromethylsulfonyl)benzenesulfonamide], for which the IC50 came out at 41 nM.
With `CN(C)CC[C@H](CSc1ccccc1)Nc1ccc(S(=O)(=O)Nc2ncnc3c2CCN(C2CCN(Cc4ccccc4-c4ccc(C(F)(F)F)cc4)CC2)C3)cc1S(=O)(=O)C(F)(F)F` [Example 99, (R)-4-(4-(dimethylamino)-1-(phenylthio)butan-2-ylamino)-N-(7-(1-((4′-(trifluoromethyl)biphenyl-2-yl)-methyl)piperidin-4-yl)-5,6,7,8-tetrahydropyrido[3,4-d]pyrimidin-4-yl)-3-(trifluoromethylsulfonyl)benzenesulfonamide] the figure was 37 nM.
With `CN(C)CC[C@H](CSc1ccccc1)Nc1ccc(S(=O)(=O)Nc2ncnc3c2CCN(C2CCN(Cc4cc(F)ccc4-c4ccc(Cl)cc4)CC2)C3)cc1S(=O)(=O)C(F)(F)F` [Example 20] the figure was 22 nM; with `C[C@H](CSc1ccccc1)Nc1ccc(S(=O)(=O)Nc2ncnc3c2CCN(C2CCN(CC4=C(c5ccc(Cl)cc5)CC(C)(C)CC4)CC2)C3)cc1S(=O)(=O)C(F)(F)F` [Example 45, N-(7-(1-((2-(4-chlorophenyl)-4,4-dimethylcyclohex-1-enyl)methyl)piperidin-4-yl)-5,6,7,8-tetrahydropyrido[3,4-d]pyrimidin-4-yl)-4-(1-(phenylthio)propan-2-ylamino)-3-(trifluoromethylsulfonyl)benzenesulfonamide], 365 nM.
Next, `CN(C)CC[C@H](CSc1ccccc1)Nc1ccc(S(=O)(=O)Nc2ncnc3c2CCN(C2CCN(Cc4ccccc4-c4ccc(Cl)cc4)CC2F)C3)cc1S(=O)(=O)C(F)(F)F` (stereo partly drawn) [Example 66, N-(7-(1-((4′-chlorobiphenyl-2-yl)methyl)-3-fluoropiperidin-4-yl)-5,6,7,8tetrahydropyrido[3,4-d]pyrimidin-4-yl)-4-((R)-4-(dimethylamino)-1-(phenylthio)butan-2-ylamino)-3-(trifluoromethylsulfonyl)benzenesulfonamide]: 36 nM; `CC(c1ccccc1-c1ccc(Cl)cc1)N1CCC(N2CCc3c(ncnc3NS(=O)(=O)c3ccc(N[C@H](CCN(C)C)CSc4ccccc4Cl)c(S(=O)(=O)C(F)(F)F)c3)C2)CC1` (stereo partly drawn) [Example 29, N-(7-(1-(1-(4′-chlorobiphenyl-2-yl)ethyl)piperidin-4-yl)-5,6,7,8-tetrahydropyrido[3,4-d]pyrimidin-4-yl)-4-((R)-1-(2-chlorophenylthio)-4-(dimethylamino)butan-2-ylamino)-3-(trifluoromethylsulfonyl)benzenesulfonamide]: 73 nM; `O=S(=O)(Nc1nnc2n1CCN(C1CCN(Cc3ccccc3-c3ccc(Cl)cc3)CC1)C2)c1ccc(N[C@H](CCN2CCOCC2)CSc2ccccc2)c(S(=O)(=O)C(F)(F)F)c1` [Example 94]: 405 nM.
Consider `CN(C)CC[C@H](CSc1c(Cl)cccc1Cl)Nc1ccc(S(=O)(=O)Nc2ncnc3c2CCN(C2CCN(Cc4ccccc4-c4ccc(Cl)cc4)CC2)C3)cc1S(=O)(=O)C(F)(F)F` [Example 38, (R)-N-(7-(1-((4′-chlorobiphenyl-2-yl)methyl)piperidin-4-yl)-5,6,7,8-tetrahydropyrido[3,4-d]pyrimidin-4-yl)-4-(1-(2,6-dichlorophenylthio)-4-(dimethylamino)butan-2-ylamino)-3-(trifluoromethylsulfonyl)benzenesulfonamide], for which the concentration for half-maximal inhibition (IC50) was 41 nM.
Consider `CN(C)CC[C@H](CSc1ccccc1)Nc1ccc(S(=O)(=O)Nc2nc(C(F)(F)F)nc3c2CCN(C2CCN(Cc4ccccc4-c4ccc(Cl)cc4)CC2F)C3)cc1S(=O)(=O)C(F)(F)F` (stereo partly drawn) [Example 69, N-(7-(1-((4′-chlorobiphenyl-2-yl)methyl)-3-fluoropiperidin-4-yl)-2-(trifluoromethyl)-5,6,7,8-tetrahydropyrido[3,4-d]pyrimidin-4-yl)-4-((R)-4-(dimethylamino)-1-(phenylthio)butan-2-ylamino)-3-(trifluoromethylsulfonyl)benzenesulfonamide], for which the IC50 is 47 nM.
Next, `[2H]C1(N2CCc3c(ncnc3NS(=O)(=O)c3ccc(N[C@H](CCN4CCN(C)CC4)CSc4ccccc4F)c(S(=O)(=O)C(F)(F)F)c3)C2)CCN(CC2=C(c3ccc(Cl)cc3)CC(C)(C)CC2)CC1` [Example 83]: 28 nM; `[2H]C1(N2CCc3c(ncnc3NS(=O)(=O)c3ccc(N[C@H](CCN4CCN(C)CC4)CSc4ccccc4F)c(S(=O)(=O)C(F)(F)F)c3)C2)CCN(Cc2cc(F)ccc2-c2ccc(Cl)cc2)CC1` [Example 87, (R)-N-(7-(1-((4′-chloro-4-fluorobiphenyl-2-yl)methyl)-4-deuteropiperidin-4-yl)-5,6,7,8-tetrahydropyrido[3,4-d]pyrimidin-4-yl)-4-(1-(2-fluorophenylthio)-4-(4-methylpiperazin-1-yl)butan-2-ylamino)-3-(trifluoromethylsulfonyl)benzenesulfonamide]: 32 nM; `[2H]C1(N2CCc3c(ncnc3NS(=O)(=O)c3ccc(N[C@H](CCN4CC5CCC(C4)O5)CSc4ccccc4)c(S(=O)(=O)C(F)(F)F)c3)C2)CCN(Cc2cc(F)ccc2-c2ccc(Cl)cc2)CC1` [Example 80, 4-((2R)-4-(8-oxa-3-azabicyclo[3.2.1]octan-3-yl)-1-(phenylthio)butan-2-ylamino)-N-(7-(1-((4′-chloro-4-fluorobiphenyl-2-yl)methyl)-4-deuteropiperidin-4-yl)-5,6,7,8-tetrahydropyrido[3,4-d]pyrimidin-4-yl)-3-(trifluoromethylsulfonyl)benzenesulfonamide]: 225 nM.
With `O=S(=O)(Nc1nnc2n1CCN(C1CCCN(Cc3ccccc3-c3ccc(Cl)cc3)CC1)C2)c1ccc(N[C@H](CCN2CCOCC2)CSc2ccccc2)c(S(=O)(=O)C(F)(F)F)c1` (stereo partly drawn) [Example 95, N-{7-[1-(4′-Chloro-biphenyl-2-ylmethyl)-azepan-4-yl]-5,6,7,8-tetrahydro-[1,2,4]triazolo[4,3-a]pyrazin-3-yl}-4-((R)-3-morpholin-4-yl-1-phenylsulfanylmethyl-propylamino)-3-trifluoromethanesulfonyl-benzenesulfonamide] the figure was 1900 nM; with `CC(=O)N(CCSc1ccccc1)c1ccc(S(=O)(=O)Nc2ncnc3c2CCN(C2CCN(Cc4cc(F)ccc4-c4ccc(Cl)cc4)CC2)C3)cc1S(=O)(=O)C(F)(F)F` [Example 15], 757 nM.
Next, `CN(C)C(=O)C[C@H](CSc1ccccc1)Nc1ccc(S(=O)(=O)Nc2ncnc3c2CCN(C2CCN(Cc4ccccc4-c4ccc(Cl)cc4)CC2)C3)cc1[N+](=O)[O-]` [Example 22, (R)-3-(4-(N-(7-(1-((4′-chlorobiphenyl-2-yl)methyl)piperidin-4-yl)-5,6,7,8-tetrahydropyrido[3,4-d]pyrimidin-4-yl)sulfamoyl)-2-nitrophenylamino)-N,N-dimethyl-4-(phenylthio)butanamide]: 75 nM; `O=[N+]([O-])c1cc(S(=O)(=O)Nc2ncnc3c2CCN(C2CCN(Cc4ccccc4-c4ccc(Cl)cc4)CC2)C3)ccc1N[C@H](CCN1CCOCC1)CSc1ccccc1` [Example 58]: 66 nM.
As for `CN(C)CC[C@H](CSc1ccccc1)Nc1ccc(S(=O)(=O)Nc2ncnc3c2CCN(C2CCC(=Cc4ccccc4)CC2)C3)cc1S(=O)(=O)C(F)(F)F` (stereo partly drawn) [Example 63], the IC50 turned out to be 1180 nM.
